Reference: the supplement of paper PMC10307832

Columns and labels:
Assay in all cases: relative viability (nuclei count vs DMSO), 5 days (fraction); higher = more cells survive
AZD6482 + Vorinostat = compound: Cc1cc([C@@H](C)Nc2ccccc2C(=O)O)c2nc(N3CCOCC3)cc(=O)n2c1 [AZD6482] + O=C(CCCCCCC(=O)Nc1ccccc1)NO [Vorinostat] (partner 1 µM)
Outline: (§1)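 Lung cancer cell lines in 1536-well plates got either a single drug or a fixed anchor-drug dose together with five library-drug doses (not always all listed) in √10 steps, by pin tool, on the day after seeding. Nuclei were counted after 5 days, and relative viability is the treated-to-vehicle ratio of nuclei counts. Values are medians of duplicate plates.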

[1] = compound: COc1cc2nc(N3CCCN(C)CC3)nc(NC3CCN(Cc4ccccc4)CC3)c2cc1OC + CC(=O)Nc1cccc(-n2c(=O)n(C3CC3)c(=O)c3c(Nc4ccc(I)cc4F)n(C)c(=O)c(C)c32)c1 [Trametinib] (partner 0.02 µM)
Outline: as §1

[2] = compound: COc1cc2nc(N3CCCN(C)CC3)nc(NC3CCN(Cc4ccccc4)CC3)c2cc1OC + N=C(N)NC(=N)NCCc1ccccc1 [Phenformin] (partner 250 µM)
Outline: as §1

AZD6482 + Bortezomib = compound: Cc1cc([C@@H](C)Nc2ccccc2C(=O)O)c2nc(N3CCOCC3)cc(=O)n2c1 [AZD6482] + CC(C)C[C@H](NC(=O)[C@H](Cc1ccccc1)NC(=O)c1cnccn1)B(O)O [Bortezomib] (partner 0.002 µM)
Outline: as §1

Row | Cell Line | relative viability (AZD6482 + Vorinostat; first compound 0.08 µM) | relative viability (AZD6482 + Vorinostat; first compound 0.253 µM) | relative viability (AZD6482 + Vorinostat; first compound 0.8 µM) | relative viability (AZD6482 + Vorinostat; first compound 2.53 µM) | relative viability (AZD6482 + Vorinostat; first compound 8 µM) | relative viability ([1]; first compound 0.2 µM) | relative viability ([1]; first compound 0.6325 µM) | relative viability ([1]; first compound 2 µM) | relative viability ([1]; first compound 6.325 µM) | relative viability ([2]; first compound 0.2 µM) | relative viability ([2]; first compound 0.6325 µM) | relative viability ([2]; first compound 2 µM) | relative viability ([2]; first compound 6.325 µM) | relative viability (AZD6482 + Bortezomib; first compound 0.08 µM) | relative viability (AZD6482 + Bortezomib; first compound 0.253 µM) | relative viability (AZD6482 + Bortezomib; first compound 0.8 µM) | relative viability (AZD6482 + Bortezomib; first compound 2.53 µM) | relative viability (AZD6482 + Bortezomib; first compound 8 µM)
1 | 201T | 0.965 | 0.938 | 0.983 | 0.764 | 0.862 | 0.701 | 0.702 | 0.71 | 0.675 | 0.464 | 0.414 | 0.462 | 0.442 | 1.08 | 1.08 | 1.14 | 0.891 | 1.11
2 | A549 |  |  |  |  |  |  |  |  |  | 0.185 | 0.165 | 0.195 | 0.146 |  |  |  |  | 
3 | A-427 | 0.806 | 0.843 | 0.87 | 0.706 | 0.826 | 0.756 | 0.677 | 0.739 | 0.674 | 0.337 | 0.422 | 0.305 | 0.247 | 0.992 | 1.01 | 0.978 | 0.741 | 0.961
4 | ABC-1 | 1.11 | 0.877 | 1.01 | 0.83 | 0.986 |  |  |  |  | 0.223 | 0.2 | 0.26 | 0.319 | 0.267 | 0.306 | 0.317 | 0.336 | 0.408
5 | BEN | 0.541 | 0.546 | 0.594 | 0.467 | 0.578 | 1.06 | 1.04 | 1.02 | 1.1 | 0.252 | 0.251 | 0.229 | 0.276 | 0.592 | 0.768 | 0.596 | 0.641 | 0.788
6 | CAL-12T | 0.715 | 0.666 | 0.737 | 0.548 | 0.556 | 0.324 | 0.329 | 0.302 | 0.266 | 0.503 | 0.606 | 0.686 | 0.532 | 0.843 |  | 0.895 | 0.426 | 0.597
7 | COR-L23 | 0.269 | 0.512 | 0.505 | 0.28 | 0.442 | 0.635 | 0.466 | 0.748 | 0.638 | 0.456 | 0.446 | 0.494 | 0.398 | 0.948 | 0.945 | 1.23 | 0.678 | 0.828
8 | COR-L 105 | 0.75 | 0.663 | 0.907 | 0.649 | 0.648 | 0.429 | 0.515 | 0.403 | 0.439 | 0.461 | 0.514 | 0.472 | 0.343 | 0.719 | 0.893 | 0.704 | 0.699 | 0.791
9 | Calu-6 |  |  |  |  |  |  |  |  |  |  |  |  |  | 0.889 | 0.973 | 0.978 | 0.823 | 0.889
10 | ChaGo-K-1 | 0.752 | 0.7 | 0.744 | 0.708 | 0.773 | 0.919 | 0.882 | 0.932 | 0.887 | 0.51 | 0.494 | 0.492 | 0.498 | 1.09 |  | 1.14 | 0.981 | 1.27
11 | EBC-1 |  |  |  |  |  |  |  |  |  |  |  |  |  | 0.498 | 0.532 | 0.463 | 0.358 | 0.381
12 | EKVX | 0.537 | 0.662 | 0.578 | 0.485 | 0.361 | 0.316 | 0.393 | 0.319 | 0.278 | 0.233 | 0.235 | 0.233 | 0.24 | 0.815 | 0.965 | 0.863 | 0.789 | 0.689
13 | EMC-BAC-2 | 0.534 | 0.413 | 0.526 | 0.341 | 0.316 | 0.873 | 0.857 | 0.899 | 0.732 | 0.531 | 0.477 | 0.496 | 0.523 | 1.02 | 1.07 | 1.12 | 0.838 | 0.948
14 | EPLC-272H | 0.466 | 0.397 | 0.474 | 0.256 | 0.252 | 0.292 | 0.333 | 0.268 | 0.278 | 0.353 | 0.335 | 0.318 | 0.348 | 0.706 |  | 0.973 | 0.904 | 0.834
15 | H3255 | 0.741 | 0.871 | 0.764 | 0.697 | 0.689 | 0.593 | 0.607 | 0.554 | 0.537 | 0.332 | 0.372 | 0.362 | 0.344 | 0.738 | 0.896 | 0.874 | 0.382 | 0.559
16 | HARA | 0.557 | 0.574 | 0.465 | 0.357 | 0.437 | 0.686 | 0.916 | 0.522 | 0.746 | 0.474 | 0.425 | 0.494 | 0.462 | 0.977 | 1.08 | 1.37 |  | 1.13
17 | HCC-15 | 0.778 | 0.806 | 0.858 | 0.685 | 0.739 | 0.44 | 0.386 | 0.373 | 0.379 | 0.443 | 0.485 | 0.572 | 0.463 | 0.926 | 0.99 | 1.08 | 0.904 | 1.04
18 | HCC-44 | 1.08 | 1.17 | 1.28 | 1.29 | 1.21 | 1.04 | 1.13 | 1.1 | 1.08 | 0.252 | 0.376 | 0.339 | 0.27 | 0.799 | 1.01 | 0.975 | 1.04 | 0.88
19 | HCC-78 | 0.499 | 0.389 | 0.395 | 0.298 | 0.341 | 0.734 | 0.695 | 0.723 | 0.685 | 0.73 | 0.793 | 0.675 | 0.777 | 0.42 | 0.394 | 0.337 | 0.203 | 0.225
20 | HCC-366 | 0.269 | 0.26 | 0.457 | 0.269 | 0.203 | 0.335 | 0.401 | 0.358 | 0.239 | 0.577 | 0.576 | 0.613 | 0.639 | 0.944 | 0.969 | 1.06 | 0.84 | 0.742
